Assay results published in paper PMC10682101, “In vitro pharmacological characterization of standard and new lysophosphatidic acid receptor antagonists using dynamic mass redistribution assay” (Frontiers in Pharmacology, 2023).
Read-outs that look alike come from different tables or passages of the source.

Key:
CHO wild-type cells = experiment: DMR assay in CHO wild-type cells (control); type: cell-based; conditions: for DMR response: CHO cells, compound 10 μM, mean ± s.e.m.
Procedure: Confluent cells were sub-cultured using trypsin/EDTA and used for experiments. Cells were seeded at a density of 20,000 cells/well in 30 µL into fibronectin-coated EnspireTM-LC 384-well plates and cultured for 20 h to form a confluent monolayer. On the day of the experiment, the cells were manually washed twice and maintained with assay buffer (HBSS with 20 mM HEPES, 0.01% BSA) for 90 min before DMR experiments. DMR was monitored in real time with a temporal resolution of 44 s throughout the assay. Experiments were performed at 37°C using an EnSight Multimode Plate Reader (PerkinElmer). The agonism protocol was as follows: before addition of the ligand, the DMR signal was measured for 5 min, and the average of the signals recorded during this period was set as the baseline (pm = 0). Compounds are added manually in a volume of 10 µL, and the triggered DMR signals were recorded for 60 min. The antagonism protocol was as follows: antagonists were added manually 25 min before reading the 5 min baseline. […] Responses were described in the form of picometer shift over time (seconds) following the subtraction of values from vehicle-treated wells. Maximum picometer (pm) modification (peak) and area under the curve (AUC) were used to determine the agonist response.

LPA2 receptor = biological target: LPA2 receptor; set-up: method as in Schiemann et al., 2012; conditions: inhibition of LPA effects on Ca2+ mobilization, cells expressing LPA2; ref Schiemann et al., 2012; cited from earlier work
human LPA1 receptor [1] = biological target: T1, human LPA1 receptor (Homo sapiens, UniProt Q92633); experiment: Calcium mobilization assay in CHOLPA1 cells; conditions: for Effect per se: 1 µM, data not shown; for Shift of the concentration–response curve to LPA: antagonism protocol (compound 35, compound 20 at 1 µM)
T1 sequence (Q92633 whole entry): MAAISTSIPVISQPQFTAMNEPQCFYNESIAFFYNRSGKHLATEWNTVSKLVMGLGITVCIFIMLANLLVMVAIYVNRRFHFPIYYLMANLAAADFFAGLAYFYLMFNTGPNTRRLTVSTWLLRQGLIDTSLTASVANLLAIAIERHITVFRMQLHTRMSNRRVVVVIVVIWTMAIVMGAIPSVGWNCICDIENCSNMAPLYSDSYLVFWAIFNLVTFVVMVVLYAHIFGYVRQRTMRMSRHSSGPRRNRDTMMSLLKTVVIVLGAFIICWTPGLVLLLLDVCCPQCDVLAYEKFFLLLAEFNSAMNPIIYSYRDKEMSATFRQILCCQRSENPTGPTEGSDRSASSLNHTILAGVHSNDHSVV

human LPA2 receptor [2] = biological target: T2, human LPA2 receptor (Homo sapiens, UniProt Q9HBW0); experiment: Calcium mobilization assay in CHOLPA2 cells; conditions: for Effect per se / Shift of the concentration–response curve to LPA: 1 µM; for Effect per se: data not shown; for Agonism Emax / Agonism pEC50: #inactive at 1 μM; for Shift of the concentration–response curve to LPA: antagonism protocol
T2 sequence (Q9HBW0 whole entry): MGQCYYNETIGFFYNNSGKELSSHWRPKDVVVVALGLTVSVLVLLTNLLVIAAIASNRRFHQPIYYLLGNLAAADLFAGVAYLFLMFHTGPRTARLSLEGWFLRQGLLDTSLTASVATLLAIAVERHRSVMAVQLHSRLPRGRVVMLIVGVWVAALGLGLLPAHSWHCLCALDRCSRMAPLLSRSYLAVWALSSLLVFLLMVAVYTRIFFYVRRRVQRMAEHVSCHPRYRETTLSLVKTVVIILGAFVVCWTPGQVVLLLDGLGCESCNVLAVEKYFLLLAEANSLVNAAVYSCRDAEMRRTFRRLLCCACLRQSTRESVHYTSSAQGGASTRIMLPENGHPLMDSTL

human LPA1 receptor [3] = biological target: T1, human LPA1 receptor; experiment: Dynamic mass redistribution (DMR) assay in CHOLPA1 cells; conditions: for Shift of the concentration–response curve to LPA: antagonism protocol; for Agonism Emax: negative DMR signal; for DMR response: CHOLPA1 cells, compound 10 μM, mean ± s.e.m.
Procedure: All data were analyzed using GraphPad Prism 9.4 (La Jolla, CA, United States). Concentration–response curves were fitted using the four-parameter log-logistic equation. Data are expressed in the form mean ± s.e.m. across n experiments performed in duplicate. Agonist potency is expressed in the form pEC50, which is the negative logarithm to base 10 of the agonist molar concentration that produces 50% of the maximal possible effect of that agonist. […] In practice, equiactive concentrations of the agonist in the absence ([A]) and presence ([A’]) of a non-competitive antagonist ([B]) were compared in a double reciprocal plot describing a straight line, and pKB was derived from the equation: pKB = log[(slope—1)/[B]]. […] Maximal effect data were analyzed using the Student’s t-test or a one-way ANOVA followed by Dunnett’s post-hoc test.

human LPA2 receptor [4] = biological target: T2, human LPA2 receptor; experiment: Dynamic mass redistribution (DMR) assay in CHOLPA2 cells; conditions: for Shift of the concentration–response curve to LPA: antagonism protocol, 1 µM; for DMR response: CHOLPA2 cells, compound 10 μM, mean ± s.e.m.
Procedure: Confluent cells were sub-cultured using trypsin/EDTA and used for experiments. Cells were seeded at a density of 20,000 cells/well in 30 µL into fibronectin-coated EnspireTM-LC 384-well plates and cultured for 20 h to form a confluent monolayer. On the day of the experiment, the cells were manually washed twice and maintained with assay buffer (HBSS with 20 mM HEPES, 0.01% BSA) for 90 min before DMR experiments. DMR was monitored in real time with a temporal resolution of 44 s throughout the assay. Experiments were performed at 37°C using an EnSight Multimode Plate Reader (PerkinElmer). The agonism protocol was as follows: before addition of the ligand, the DMR signal was measured for 5 min, and the average of the signals recorded during this period was set as the baseline (pm = 0). Compounds are added manually in a volume of 10 µL, and the triggered DMR signals were recorded for 60 min. […] Responses were described in the form of picometer shift over time (seconds) following the subtraction of values from vehicle-treated wells. Maximum picometer (pm) modification (peak) and area under the curve (AUC) were used to determine the agonist response.
All data were analyzed using GraphPad Prism 9.4 (La Jolla, CA, United States). Concentration–response curves were fitted using the four-parameter log-logistic equation. Data are expressed in the form mean ± s.e.m. across n experiments performed in duplicate. […] In practice, equiactive concentrations of the agonist in the absence ([A]) and presence ([A’]) of a non-competitive antagonist ([B]) were compared in a double reciprocal plot describing a straight line, and pKB was derived from the equation: pKB = log[(slope—1)/[B]]. […] Maximal effect data were analyzed using the Student’s t-test or a one-way ANOVA followed by Dunnett’s post-hoc test.

LPA1/3 [5] = biological target: LPA1/3; set-up: method as in Ohta et al., 2003; conditions: LPA1/3 antagonist; ref Ohta et al., 2003; read-out: Ki estimated from binding experiments; cited from earlier work
LPA1/3 [6] = test system: LPA1/3; set-up: method as in Ohta et al., 2003; conditions: ref Ohta et al., 2003; cited from earlier work
LPA1 receptor [7] = test system: LPA1 receptor; set-up: method as in Ohta et al., 2003; conditions: GTPγS binding assay; ref Ohta et al., 2003; cited from earlier work
LPA1 receptor [8] = test system: LPA1 receptor; set-up: method as in Shimizu and Nakayama, 2017; conditions: cAMP assay; ref Shimizu and Nakayama, 2017; cited from earlier work
LPA1 receptor [9] = test system: LPA1 receptor; set-up: method as in Ohta et al., 2003; conditions: inositol phosphate test; ref Ohta et al., 2003; cited from earlier work
[10] = CHOLPA1, calcium mobilization, #inactive at 1 μM
[11] = CHOLPA1, DMR, peak, up to 10 µM (compound 35 up to 1 µM), °inactive at 10 μM
[12] = CHOLPA2, DMR, negative DMR signal, peak, up to 10 µM (compound 35 up to 1 µM), °inactive at 10 μM
[13] = CHOLPA1, calcium mobilization, *inactive at 0.1 µM

Structure (SMILES)	DMR response (CHO wild-type cells) [pm]	Effect per se (human LPA1 receptor [1]; CHOLPA1, calcium mobilization)	Shift of the concentration–response curve to LPA (human LPA1 receptor [1]; CHOLPA1, calcium mobilization)	Effect per se (human LPA2 receptor [2]; CHOLPA2, calcium mobilization)	Agonism Emax (human LPA2 receptor [2]; CHOLPA2, calcium mobilization)	Agonism pEC50 (human LPA2 receptor [2]; CHOLPA2, calcium mobilization)	Shift of the concentration–response curve to LPA (human LPA2 receptor [2]; CHOLPA2, calcium mobilization)	Shift of the concentration–response curve to LPA (human LPA1 receptor [3]; CHOLPA1, DMR, 1 µM)	Agonism Emax (human LPA1 receptor [3]; [11])	DMR response (human LPA1 receptor [3]) [pm]	Shift of the concentration–response curve to LPA (human LPA2 receptor [4]; CHOLPA2, DMR)	Agonism Emax (human LPA2 receptor [4]; [12])	DMR response (human LPA2 receptor [4]) [pm]	further results
O=C1C[C@@](O)(C(F)(F)F)c2c(-c3cccc(F)c3)n[nH]c2N1 [Compound 20]	−26 ± 8	did not produce any effect per se	did not shift the concentration–response curve to LPA to the right	did not produce any effect per se	Inactive^#	Inactive^#	shifted the concentration–response curve to LPA to the right	did not shift the concentration–response curve to LPA to the right	Inactive°	−31 ± 17	shifted the concentration–response curve to LPA to the right	−94 ± 6 pm	−119 ± 25	DMR effect per se (CHO wild-type cells; CHO wild-type cells, 10 µM): failed to evoke effects per se; pIC50 (LPA2 receptor): > 6; Kb (human LPA1 receptor [1]; Antagonism pKB/pA2, CHOLPA1, calcium mobilization, LPA curve in absence and presence of 1 µM compound): > 1000 nM; Agonism Emax (human LPA1 receptor [1]; [10]): Inactive^#; Agonism pEC50 (human LPA1 receptor [1]; [10]): Inactive^#; Kb (human LPA2 receptor [2]): 56.2 nM; Effect on LPA maximal effect (human LPA2 receptor [2]; CHOLPA2, calcium mobilization, tested as antagonist): induced a reduction in LPA maximal effects; Agonism pEC50 (human LPA1 receptor [3]; CHOLPA1, DMR, negative DMR signal (inverse agonism), peak, up to 10 µM (compound 35 up to 1 µM), °inactive at 10 μM): Inactive°; DMR effect per se (human LPA1 receptor [3]; CHOLPA1, DMR, up to highest concentration tested (10 μM; compound 35 1 µM)): inactive up to 10 μM; EC50 (human LPA2 receptor [4]): 148 nM; Agonism Emax (human LPA2 receptor [4]; CHOLPA2, DMR, negative DMR signal, peak, up to 10 µM (compound 35 up to 1 µM), °inactive at 10 μM, listed as Merck compound 20): −94 pm; Time of maximum peak modification of the DMR response after administration (human LPA2 receptor [4]; CHOLPA2, DMR, slow onset): ~60 min
Cc1noc(-c2ccc(CSCCC(=O)O)cc2)c1NC(=O)OC(C)c1ccccc1Cl (stereo not shown) [KI 16425]	−42 ± 7	did not produce any effect per se	shifted the concentration–response curve to LPA to the right	did not produce any effect per se	Inactive^#	Inactive^#	shifted the concentration–response curve to LPA to the right	shifted the concentration–response curve to LPA to the right	−110 ± 17 pm	−101 ± 7	shifted the concentration–response curve to LPA to the right	Crc incomplete	−95 ± 4	Ki (LPA1/3 [5]): 670 nM; Selectivity for LPA1/3 vs. LPA2 (LPA1/3 [6]): 20 fold; Inverse agonism activity (LPA1 receptor [7]): slight degree of inverse agonism activity; Inverse agonism activity (LPA1 receptor [8]): slight degree of inverse agonism activity; Inverse agonism activity (LPA1 receptor [9]): this has not been replicated; Kb (human LPA1 receptor [1]; Antagonism pKB (pKB/pA2), CHOLPA1, calcium mobilization, Gaddum method, LPA curve in absence and presence of 0.1 µM antagonist): 3.09 nM; Agonism Emax (human LPA1 receptor [1]; [13]): Inactive*; Agonism pEC50 (human LPA1 receptor [1]; [13]): Inactive*; Antagonism pKB (pKB/pA2) (human LPA1 receptor [1]; CHOLPA1, calcium mobilization, Gaddum method, LPA curve in absence and presence of 0.1 µM antagonist): ~8.5; Effect on LPA maximal effect (human LPA1 receptor [1]; CHOLPA1, calcium mobilization, tested as antagonist): reduced the LPA maximal effect in a concentration-dependent manner; EC50 (human LPA1 receptor [3]; Agonism pEC50, CHOLPA1, DMR, negative DMR signal (inverse agonism), peak, up to 10 µM (compound 35 up to 1 µM), °inactive at 10 μM): 67.6 nM; Effect on LPA maximal effect (human LPA1 receptor [3]; CHOLPA1, DMR, tested as antagonist, 1 µM): without changing the maximal effect; DMR effect per se (human LPA2 receptor [4]; CHOLPA2, DMR, concentration–response up to highest concentration tested): inactive per se, or slightly active only at the higher concentration tested; Agonism pEC50 (human LPA2 receptor [4]; [12]): Crc incomplete
